Key:
[1] = test system: whole blood (pERK); assay: pERK Whole Blood; format: cell-based
[2] = target: human DGKα (Homo sapiens (Human), UniProt P23743); assay: DGKα ADPGLO assay (detergent/lipid micelle substrate); format: biochemical; conditions: ADPGLO assay; read-out: DGK alpha ADPGLO IC50
Experimental: DGK Alpha ADPGLO (Truncated) IC50 (uM)
The detergent/lipid micelle was prepared by combining 15 g phosphatidylserine (Avanti 840035P) and 1 g diacylglycerol (8008110) and dissolving into 150 mL chloroform in a 2 L round bottom flask. Chloroform was removed under high vacuum by rotary evaporation. […] The lipid/detergent solution was split into 5 mL aliquots and stored at −80° C.

[3] = target: human DGKζ (Homo sapiens (Human), UniProt Q13574); assay: DGKζ LIPGLO assay (extruded liposome substrate, ADP-Glo luminescence); format: biochemical; conditions: liposome (LIPGLO) assay; read-out: DGK zeta (liposome assay) IC50
Sequence of human DGKζ (Q13574 other isoform, or with tags, fused parts or gaps): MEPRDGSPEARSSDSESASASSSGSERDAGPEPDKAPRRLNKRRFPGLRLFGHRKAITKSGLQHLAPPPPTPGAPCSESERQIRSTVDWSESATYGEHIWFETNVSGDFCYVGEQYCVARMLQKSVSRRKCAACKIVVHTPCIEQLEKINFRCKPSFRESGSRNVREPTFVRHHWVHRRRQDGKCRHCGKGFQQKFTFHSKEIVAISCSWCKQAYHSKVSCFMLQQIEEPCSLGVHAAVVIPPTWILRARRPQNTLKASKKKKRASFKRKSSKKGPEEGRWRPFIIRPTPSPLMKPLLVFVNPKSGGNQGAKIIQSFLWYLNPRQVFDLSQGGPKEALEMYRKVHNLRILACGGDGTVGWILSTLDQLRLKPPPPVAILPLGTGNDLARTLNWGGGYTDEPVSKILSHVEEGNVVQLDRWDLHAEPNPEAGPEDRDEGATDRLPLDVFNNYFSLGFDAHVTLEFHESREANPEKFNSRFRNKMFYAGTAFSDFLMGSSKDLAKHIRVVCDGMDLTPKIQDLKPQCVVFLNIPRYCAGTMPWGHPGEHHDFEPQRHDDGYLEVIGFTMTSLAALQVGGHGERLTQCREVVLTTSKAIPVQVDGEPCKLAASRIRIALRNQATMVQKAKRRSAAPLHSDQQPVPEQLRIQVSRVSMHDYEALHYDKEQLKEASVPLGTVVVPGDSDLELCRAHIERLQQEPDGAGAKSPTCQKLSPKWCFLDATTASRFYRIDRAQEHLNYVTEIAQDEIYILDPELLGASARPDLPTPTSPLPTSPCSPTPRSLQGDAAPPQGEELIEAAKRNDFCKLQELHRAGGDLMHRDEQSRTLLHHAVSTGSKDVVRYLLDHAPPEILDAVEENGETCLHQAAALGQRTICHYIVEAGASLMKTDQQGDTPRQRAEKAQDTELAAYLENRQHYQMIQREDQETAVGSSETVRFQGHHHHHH

[4] = test system: human venous whole blood (IFN-γ); assay: Human whole blood IFN-γ assay; format: cell-based; conditions: human whole blood, anti-CD3 plus anti-CD28 stimulation, 24 hours; read-out: IFN-γ Whole Blood EC50
Experimental: Human venous whole blood (22.5 μL per well), obtained from healthy donors, was pre-treated with compounds for one hour at 37° C. in a humidified 95% air/5% CO2 incubator. The blood was stimulated with 2.5 μL anti-human CD3 and anti-CD28 mAb at a final concentration of 1 μg/mL each for 24 hours at 37° C. IFN-γ in the supernatants was measured using AlphLISA kit (Cat #AL217).

Sequence of human DGKα (P23743 whole entry, looked up, the tested form may be a part): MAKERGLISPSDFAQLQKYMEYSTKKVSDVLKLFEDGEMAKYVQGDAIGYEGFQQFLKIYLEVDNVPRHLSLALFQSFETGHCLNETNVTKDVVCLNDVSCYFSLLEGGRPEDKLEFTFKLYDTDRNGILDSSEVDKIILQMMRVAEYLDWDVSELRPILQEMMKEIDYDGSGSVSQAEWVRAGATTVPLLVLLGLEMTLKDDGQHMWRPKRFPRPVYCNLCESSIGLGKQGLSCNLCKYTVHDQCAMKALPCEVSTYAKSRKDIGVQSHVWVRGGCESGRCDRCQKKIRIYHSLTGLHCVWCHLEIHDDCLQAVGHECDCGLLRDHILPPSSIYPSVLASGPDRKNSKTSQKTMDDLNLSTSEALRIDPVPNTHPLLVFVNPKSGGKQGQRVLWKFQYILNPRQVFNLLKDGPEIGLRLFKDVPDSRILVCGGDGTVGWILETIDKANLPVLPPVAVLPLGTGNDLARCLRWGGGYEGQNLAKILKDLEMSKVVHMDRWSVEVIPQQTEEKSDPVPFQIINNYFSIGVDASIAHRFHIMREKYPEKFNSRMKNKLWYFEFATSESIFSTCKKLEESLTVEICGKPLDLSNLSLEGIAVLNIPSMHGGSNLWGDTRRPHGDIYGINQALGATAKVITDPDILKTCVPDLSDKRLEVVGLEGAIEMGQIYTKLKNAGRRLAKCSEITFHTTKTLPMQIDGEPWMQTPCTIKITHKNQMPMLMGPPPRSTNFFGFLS

SMILES	EC50 [1]	IC50 [2]	IC50 [3]	EC50 [4]
CC(c1ccc(CN2C[C@@H](C)O[C@@H](C)C2)cc1)N1C[C@H](C)N(c2nc(=O)n(C)c3ccc(C#N)nc23)C[C@H]1C (stereo partly drawn) [Example 389, 4-((2S,5R)-4-(1-(4-(((2S,6R)-2,6-dimethylmorpholino)methyl)phenyl)ethyl)-2,5-dimethylpiperazin-1-yl)-1-methyl-2-oxo-1,2-dihydropyrido[3,2-d]pyrimidine-6-carbonitrile]	0.37 µM	1 µM	8.22 µM	–
CC[C@@H]1CN(c2nc(=O)n(C)c3ccc(C#N)nc23)[C@@H](C)CN1C(c1nc(C2CC2)no1)C(C)C (stereo partly drawn) [Example 365, 4-((2S,5R)-4-(1-(3-cyclopropyl-1,2,4-oxadiazol-5-yl)-2-methylpropyl)-5-ethyl-2-methylpiperazin-1-yl)-1-methyl-2-oxo-1,2-dihydropyrido[3,2-d]pyrimidine-6-carbonitrile]	4.41 µM	0.016 µM	0.021 µM	–
CC[C@@H]1CN(c2nc(=O)n(C)c3ccc(C#N)nc23)[C@@H](C)CN1C(C)c1ccc(C(F)(F)F)c(CN2CCCCC2)c1 (stereo partly drawn) [Example 354, 4-((2S,5R)-5-ethyl-2-methyl-4-(1-(3-(piperidin-1-ylmethyl)-4-(trifluoromethyl)phenyl)ethyl)piperazin-1-yl)-1-methyl-2-oxo-1,2-dihydropyrido[3,2-d]pyrimidine-6-carbonitrile]	7.95 µM	–	0.65 µM	–
CC[C@@H]1CN(c2nc(=O)n(C)c3ccc(C#N)nc23)[C@@H](C)CN1C(C)c1ccc(C(F)(F)F)c(C#N)c1 (single isomer, unassigned) [Example 357]	3.78 µM	2.08 µM	1.56 µM	–
CC[C@H]1CN(C(C)c2ccc(C(F)(F)F)cc2)[C@H](CC)CN1c1nc(=O)n(C)c2ccc(C(F)F)nc12 (stereo partly drawn) [Example 440, 4-((2S,5R)-2,5-Diethyl-4-(1-(4-(trifluoromethyl)phenyl)ethyl)piperazin-1-yl)-6-(difluoromethyl)-1-methylpyrido[3,2-d]pyrimidin-2(1H)-one]	8.07 µM	1.14 µM	44.6 µM	–
CC[C@@H]1CN(c2nc(=O)n(C)c3ccc(C#N)nc23)[C@@H](CO)CN1C(C)c1ccc(C(F)(F)F)cc1 (single isomer, unassigned) [Example 412]	0.67 µM	9.67 µM	45 µM	–
CC[C@@H]1CN(c2nc(=O)n(C)c3ccc(C#N)nc23)[C@@H](C)CN1C(C)c1ccc(C(F)(F)F)c(CN2CCCCC2)c1 (stereo partly drawn) [Example 355, 4-((2S,5R)-5-ethyl-2-methyl-4-(1-(3-(piperidin-1-ylmethyl)-4-(trifluoromethyl)phenyl)ethyl)piperazin-1-yl)-1-methyl-2-oxo-1,2-dihydropyrido[3,2-d]pyrimidine-6-carbonitrile]	6.69 µM	–	41.7 µM	–
CCC[C@@H]1CN(c2nc(=O)n(C)c3ccc(C#N)nc23)[C@@H](C)CN1C(C)c1ccc(C(F)(F)F)cc1 (single isomer, unassigned) [Example 395]	20 µM	0.49 µM	–	–
CCOc1ccc2c(n1)c(N1C[C@@H](CC)N(C(C)c3ccc(C(F)(F)F)cc3)C[C@@H]1CC)nc(=O)n2C (stereo partly drawn) [Example 430, 4-((2S,5R)-2,5-diethyl-4-(1-(4-(trifluoromethyl)phenyl)ethyl)piperazin-1-yl)-6-ethoxy-1-methylpyrido[3,2-d]pyrimidin-2(1H)-one]	20 µM	–	125 µM	20 µM

Continued, values first:

EC50 [1]	IC50 [2]	IC50 [3]	EC50 [4]	SMILES
0.18 µM	0.017 µM	0.026 µM	–	CCC(c1ccc(C(C)(C)C#N)cc1)N1C[C@H](C)N(c2nc(=O)n(C)c3ccc(C#N)nc23)C[C@H]1CC (stereo partly drawn) [Example 317, 4-((2S,5R)-4-(1-(4-(2-cyanopropan-2-yl)phenyl)propyl)-5-ethyl-2-methylpiperazin-1-yl)-1-methyl-2-oxo-1,2-dihydropyrido[3,2-d]pyrimidine-6-carbonitrile]
7.93 µM	1.09 µM	1.2 µM	–	CCC(c1ccc(OCC2COC2)cc1)N1C[C@H](C)N(c2nc(=O)n(C)c3ccc(C#N)nc23)C[C@H]1CC (stereo partly drawn) [Example 342, 4-((2S,5R)-5-ethyl-2-methyl-4-(1-(4-(oxetan-3-ylmethoxy)phenyl)propyl)piperazin-1-yl)-1-methyl-2-oxo-1,2-dihydropyrido[3,2-d]pyrimidine-6-carbonitrile]
0.28 µM	0.075 µM	0.079 µM	–	CCC(c1ccc(OCCC2CC2)cc1)N1C[C@H](C)N(c2nc(=O)n(C)c3ccc(C#N)nc23)C[C@H]1CC (stereo partly drawn) [Example 339, 4-((2S,5R)-4-(1-(4-(2-cyclopropylethoxy)phenyl)propyl)-5-ethyl-2-methylpiperazin-1-yl)-1-methyl-2-oxo-1,2-dihydropyrido[3,2-d]pyrimidine-6-carbonitrile]
20 µM	0.75 µM	0.047 µM	–	CCOC[C@@H]1CN(c2nc(=O)n(C)c3ccc(C#N)nc23)[C@@H](C)CN1C(CC)c1ccc(C(F)(F)F)cc1 (stereo partly drawn) [Example 400, 4-((2S,5S)-5-(ethoxymethyl)-2-methyl-4-(1-(4-(trifluoromethyl)phenyl)propyl)piperazin-1-yl)-1-methyl-2-oxo-1,2-dihydropyrido[3,2-d]pyrimidine-6-carbonitrile]
20 µM	0.91 µM	1.31 µM	–	CCC(c1ccc(OCC2CCOCC2)cc1)N1C[C@H](C)N(c2nc(=O)n(C)c3ccc(C#N)nc23)C[C@H]1CC (stereo partly drawn) [Example 338, 4-((2S,5R)-5-ethyl-2-methyl-4-(1-(4-((tetrahydro-2H-pyran-4-yl)methoxy)phenyl)propyl)piperazin-1-yl)-1-methyl-2-oxo-1,2-dihydropyrido[3,2-d]pyrimidine-6-carbonitrile]
12.9 µM	6.31 µM	15.9 µM	–	CCC(c1ccc(OCCC2CC2)cc1)N1C[C@H](C)N(c2nc(=O)n(C)c3ccc(C#N)nc23)C[C@H]1CC (stereo partly drawn) [Example 340, 4-((2S,5R)-4-(1-(4-(2-cyclopropylethoxy)phenyl)propyl)-5-ethyl-2-methylpiperazin-1-yl)-1-methyl-2-oxo-1,2-dihydropyrido[3,2-d]pyrimidine-6-carbonitrile]
20 µM	0.48 µM	1.1 µM	–	CCC(c1ccc(OCCC(F)(F)F)cc1)N1C[C@H](C)N(c2nc(=O)n(C)c3ccc(C#N)nc23)C[C@H]1CC (single isomer, unassigned) [Example 336]
0.23 µM	0.011 µM	0.028 µM	–	CCOc1ccc(C(CC)N2C[C@H](C)N(c3nc(=O)n(C)c4ccc(C#N)nc34)C[C@H]2CC)cc1 (stereo partly drawn) [Example 306, 4-((2S,5R)-4-(1-(4-ethoxyphenyl)propyl)-5-ethyl-2-methylpiperazin-1-yl)-1-methyl-2-oxo-1,2-dihydropyrido[3,2-d]pyrimidine-6-carbonitrile]
0.057 µM	0.23 µM	0.65 µM	–	CC[C@@H]1CN(c2nc(=O)n(C)c3ccc(C#N)nc23)[C@@H](C)CN1C(c1ccc(OC)cc1)C(C)C (stereo partly drawn) [Example 313, 4-((2S,5R)-5-ethyl-4-(1-(4-methoxyphenyl)-2-methylpropyl)-2-methylpiperazin-1-yl)-1-methyl-2-oxo-1,2-dihydropyrido[3,2-d]pyrimidine-6-carbonitrile]

Reference: patent publication US11584747B2, “Substituted pyridopyrimidinonyl compounds useful as T cell activators” (BRISTOL-MYERS SQUIBB COMPANY, priority 2019, dated 2023)
